Data published in patent US10258691B2 (SignPath Pharma Inc., priority 2014, dated 2019).
“And” between values parts separate entries of the source, which are not always exact repeats. Identical values can stand only once. “Also recorded” adds a separate entry of the source. Counter-ions that a name gives are not always drawn.

Legend:
[1] = target: T1, hERG (Homo sapiens, UniProt Q12809); test: Whole-cell patch-clamp, protective effect of 10:0-18:0 Lyso PG and 14:0 EGPG against hERG inhibition by Nilotinib; assay type: cell-based; parameters: expressed in transfected cells; host or cells: HEK 293, stably transfected with the hERG gene (HEK-hERG); settings: for protective effect against hERG inhibition by Nilotinib (in words): PLs/Nilo ratio 9:1; for inhibition of the hERG tail current (in words): lipid alone or Nilotinib 0.5 μg/mL formulated with lipid […] (9:1)
Protocol: The purpose of this study is to evaluate in vitro the protective effect of 10:0 Lyso PG, 12:0 Lyso PG, 14:0 Lyso PG, 16:0 Lyso PG, 18:0 Lyso PG and 14:0 EGPG on the rapidly activating delayed-rectifier potassium selective current (IK) generated under normoxic conditions in stably transfected Human Embryonic Kidney cells (HEK 293 cells).
The test samples were prepared as follows. […] The solution was vortexed for 10 minutes before being used in the patch-clamp assay.
Test performed: Whole-cell patch-clamp current acquisition and analysis. Temperature: 35±2° C. Original data acquisition design: Acquisition Rate(s): 1.0 kHz.
Patch-clamp current recording. […] Isolated cells were plated into 2-mL experimental chambers, mounted on the platform of an inverted microscope. The cells were superfused with external solution (in mM: NaCl 140.0, KCl 5.0, CaCl2 1.8, MgCl2 1.0, HEPES 10.0, dextrose 10.0, pH 7.4±0.05). A 2-10 MΩ resistance pipette was filled with the pipette solution (in mM: KCl 140.0, MgCl2 1.0, Mg-ATP 4.0, EGTA 5.0, HEPES 10.0, sucrose 10.0, pH 7.4±0.05), and brought to contact the external membrane of a single cell.
Application of test samples: 5 minutes of exposure to each concentration in presence of closed circuit perfusion (2 mL/min). 5 minutes for washout periods in presence of a flow-through perfusion (2 mL/min) in addition to a closed circuit perfusion (2 mL/min). […] Cells were under continuous stimulation of the pulses protocol throughout the studies and cell currents were recorded after 5 minutes of exposure to each condition.
Statistical analysis: Statistical comparisons were made using paired Student's t-tests, comparing each treatment period with its corresponding value at the baseline condition. The currents recorded after the exposure of each test sample were compared to the currents recorded in baseline conditions. Differences were considered significant when p≤0.05.
Effect of the Test Samples on whole-cell IKr hERG currents. Whole-cell currents elicited during a voltage pulse were recorded in baseline conditions and following the application of the selected concentration of test sample. The cells were depolarized for one second from the holding potential (−80 mV) to a maximum value of +40 mV, starting at −40 mV and progressing in 10 mV increments. The membrane potential was then repolarized to −55 mV for one second, and finally returned to −80 mV.
Whole-cell tail current amplitude was measured at a holding potential of −55 mV, following activation of the current from −40 to +40 mV. Current amplitude was measured at the maximum (peak) of this tail current. Current density was obtained by dividing current amplitude by cell capacitance measured prior to capacitive transient minimization.
Current run-down and solvent effect correction. All data points presented in this example were corrected for solvent effect and time-dependent current run-down. Current run-down and solvent effects were measured simultaneously by applying the study design in test sample-free conditions over the same time frame as was done with the test sample. The loss in current amplitude measured during these so-called vehicle studies (representing both solvent effects and time-dependent run-down) was subtracted from the loss of amplitude measured in the presence of the test sample to isolate the effect of the test sample, apart from the effect of the solvent and the inevitable run-down in current amplitude over time.

[2] = test system: Male Hartley guinea pigs; test: Moxifloxacin-induced QTc prolongation in guinea pigs, oral phospholipids; assay type: in vivo, guinea pig; settings: for mitigation of MF-induced QT prolongation (in words): oral gavage 2 hours before 20 mg/kg i.v. MF, PL to drug ratio 1:1 (FIG. 11A)
[3] = target: T1, hERG; test: Whole-cell patch-clamp, protective effect of DMPC, DMPG, DMPC/DMPG, LysoPG and LysoPC against hERG inhibition by Nilotinib; settings: for inhibition of the hERG tail current density (in words) / Corrected Normalized Current Density / Normalized Current Density: HEK 293; for inhibition of the hERG tail current density (in words): lipid alone or Nilotinib 0.1 μM formulated in aqueous solution with lipid; for Corrected Normalized Current Density: corrected for solvent effect and current run-down, baseline 1.000; for Corrected Normalized Current Density / Normalized Current Density: Nilotinib 0.1 μM (alone in DMSO, with lipid in aqueous solution), 14:0 LysoPG […]; for Normalized Current Density: hERG tail current density relative to baseline 1.000, 5 min exposure; for protection against hERG inhibition caused by Nilotinib (in words): in vitro, co-formulated with Nilotinib
[4] = test system: Sprague Dawley male rats; test: Moxifloxacin-induced QTc prolongation in rats, oral complex pre-treatment; assay type: in vivo; settings: rat; Moxifloxacin 20 mg/kg i.v. over 20 minutes
Text: Methods. The present inventors formulated the product in a complex mixture as an oral application in order to facilitate drug delivery in cancer patients being treated with oral LQTS inducing drugs. Preclinical evaluation of the oral application was done by instrumented Sprague Dawley male (250-300 g) rats. Cutaneous ECG leads were used to maximize T wave detection. The animals in groups of 3 rats were briefly anesthetized with a light dose of isoflurane, and a pre-treatment ECG was obtained to establish well-defined T waves, and to rule-out existing arrhythmic predispositions. Pre-treatment ECG profiles were normal.
A single dose of the oral complex in the ratio of 9:1 Moxifloxicin was vortexed continuously for 5 minutes to obtain an emulsion and immediately administered by gavage. Moxifloxacin, a broad spectrum antibiotic with documented LQTS activity, was formulated in DMSO and 2 hours afterwards infused intravenously (femoral canula) over 20 minutes at a starting dose of 2.8 mg/kg. ECGs were recorded from 5 minutes prior to and during the 20 minute infusion. Then the animals were dosed at 6.1 mg/kg over 20 minutes; then 20 mg/kg over 20 minutes. In a positive control group moxifloxacin was infused alone. In a second group of rats the complex was given orally 2 hours prior to the first dose of moxifloxacin. […]

[5] = test system: HEK293 cell; settings: 20 μM, 24 h incubation; cited from earlier work
[6] = test system: rabbits; settings: intravenous injection of 20 mg; cited from earlier work

T1 sequence (Q12809 whole entry): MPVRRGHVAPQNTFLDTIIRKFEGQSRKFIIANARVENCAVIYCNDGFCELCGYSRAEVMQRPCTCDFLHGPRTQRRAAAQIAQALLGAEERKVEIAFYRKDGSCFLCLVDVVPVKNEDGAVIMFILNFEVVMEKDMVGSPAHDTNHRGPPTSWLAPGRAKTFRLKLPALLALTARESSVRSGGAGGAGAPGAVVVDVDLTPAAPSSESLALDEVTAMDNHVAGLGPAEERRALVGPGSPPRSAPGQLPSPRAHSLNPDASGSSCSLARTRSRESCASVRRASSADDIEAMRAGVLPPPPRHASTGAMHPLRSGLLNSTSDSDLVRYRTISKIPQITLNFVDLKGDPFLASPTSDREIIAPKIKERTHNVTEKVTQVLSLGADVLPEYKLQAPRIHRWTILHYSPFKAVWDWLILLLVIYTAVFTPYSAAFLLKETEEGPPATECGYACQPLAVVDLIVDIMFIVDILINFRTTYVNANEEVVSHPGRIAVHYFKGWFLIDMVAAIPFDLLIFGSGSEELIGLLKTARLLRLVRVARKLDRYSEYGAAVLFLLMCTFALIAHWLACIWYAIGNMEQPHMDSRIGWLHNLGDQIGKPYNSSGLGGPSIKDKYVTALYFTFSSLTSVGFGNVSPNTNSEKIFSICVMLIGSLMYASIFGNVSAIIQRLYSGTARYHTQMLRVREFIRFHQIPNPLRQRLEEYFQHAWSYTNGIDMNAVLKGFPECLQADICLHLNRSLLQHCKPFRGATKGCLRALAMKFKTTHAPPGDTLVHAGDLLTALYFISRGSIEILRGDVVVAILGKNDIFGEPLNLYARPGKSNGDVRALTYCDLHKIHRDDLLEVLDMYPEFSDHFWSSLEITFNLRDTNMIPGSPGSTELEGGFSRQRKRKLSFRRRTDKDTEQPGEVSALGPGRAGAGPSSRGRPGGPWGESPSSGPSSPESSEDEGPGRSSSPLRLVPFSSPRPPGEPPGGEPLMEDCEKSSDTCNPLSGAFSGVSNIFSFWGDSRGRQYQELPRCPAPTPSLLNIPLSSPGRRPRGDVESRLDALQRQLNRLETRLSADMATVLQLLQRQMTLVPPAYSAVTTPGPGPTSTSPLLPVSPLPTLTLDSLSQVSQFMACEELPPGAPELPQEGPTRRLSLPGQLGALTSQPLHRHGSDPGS

Compound: CCCCCCCCCCCC(=O)OC[C@@H](O)COP(=O)([O-])OCC(O)CO.[Na+] (mixture of isomers) [12:0 LysoPG, 1-dodecanoyl-2-hydroxy-sn-glycero-3-[phospho-rac-(1-glycerol)] sodium salt]
- protective effect against hERG inhibition by Nilotinib (in words) [1]: prevented the inhibition
- inhibition of the hERG tail current (in words) [1]: did not cause any inhibition

Compound: CCCCCCCCCCCCCC(=O)OC[C@H](COP(=O)([O-])OCC(O)CO)OC(=O)CCCCCCCCCCCCC.[Na+] (some centres unmarked) [DMPG, 1,2-dimyristoyl-sn-glycero-3-[phosphoric-(1-glycerol)] (sodium salt)]
- mitigation of MF-induced QT prolongation (in words) [2]: prevented the MF-induced QTs prolongation
- inhibition of the hERG tail current density (in words) [3]: did not cause any inhibition
- Corrected Normalized Current Density [3]: 0.994
- Normalized Current Density [3]: 0.800
- protection against hERG inhibition caused by Nilotinib (in words) ([3]; (sodium salt)): protects against hERG inhibition; also recorded: abrogated the effects of nilotinib

Compound: CCCCCCCCCCCCCC(=O)OCCOP(=O)(O)OCC(O)CO.N (centres unmarked) [14:0 EGPG, 2,3-dihydroxypropyl(2-[tetradecanoyloxy]ethyl)phosphate (ammonium salt)]
- mitigation of MF-induced QT prolongation (in words) [2]: prevented the MF-induced QTs prolongation
- protective effect against hERG inhibition by Nilotinib (in words) ([1]; (ammonium salt)): prevented the inhibition; also recorded: higher protective
- inhibition of the hERG tail current (in words) [1]: did not cause any inhibition

Compound: CCCCCCCCCCCCCC(=O)OC[C@@H](O)COP(=O)(O)OCC(O)CO (mixture of isomers) [14:0 LysoPG, 1-myristoyl-2-hydroxy-sn-glycero-3-[phospho-rac-(1-glycerol)] sodium salt]
- protective effect against hERG inhibition by Nilotinib (in words) ([1]; listed as 14:0 Lyso PG, sodium salt): higher protective
- protective effect against hERG inhibition by Nilotinib (in words) ([1]; sodium salt): prevented the inhibition; also recorded: most potent
- inhibition of the hERG tail current (in words) [1]: did not cause any inhibition
- inhibition of the hERG tail current density (in words) [3]: did not cause any inhibition
- Corrected Normalized Current Density [3]: 1.124
- Normalized Current Density [3]: 0.930
- protection against hERG inhibition caused by Nilotinib (in words) [3]: protects against hERG inhibition

Compound: CCCCCCCCCCCCCCCC(=O)OC[C@@H](O)COP(=O)([O-])OCC(O)CO.[Na+] (mixture of isomers) [16:0 LysoPG, 1-palmitoyl-2-hydroxy-sn-glycero-3-[phospho-rac-(1-glycerol)] sodium salt]
- protective effect against hERG inhibition by Nilotinib (in words) ([1]; listed as 16:0 Lyso PG, sodium salt): higher protective
- protective effect against hERG inhibition by Nilotinib (in words) ([1]; sodium salt): prevented the inhibition; also recorded: most potent
- inhibition of the hERG tail current (in words) [1]: did not cause any inhibition

Compound: COc1c(N2C[C@@H]3CCCN[C@@H]3C2)c(F)cc2c(=O)c(C(=O)O)cn(C3CC3)c12 [Moxifloxacin]
- QTc prolongation [4]: 48 ms and 55 ms
- QTc prolongation ([2]; 20 mg/kg i.v. MF): 35 ms

Compound: CCCCCCCCCCCCCCCCCC(=O)OC[C@@H](O)COP(=O)([O-])OCC(O)CO.[Na+] (mixture of isomers) [18:0 LysoPG, 1-stearoyl-2-hydroxy-sn-glycero-3-[phospho-rac-(1-glycerol)] sodium salt]
- protective effect against hERG inhibition by Nilotinib (in words) [1]: prevented the inhibition
- inhibition of the hERG tail current (in words) [1]: did not cause any inhibition

Compound: COc1cc(/C=C/C(=O)/C=C(O)/C=C/c2ccc(O)c(OC)c2)ccc1O [curcumin, Curcumin]
- HEK293 cell viability [5]: reduced the HEK293 cell viability
- cardiac repolarization manifested by QTc values [6]: did not affect the cardiac repolarization

Compound: CCCCCCCCCC(=O)OC[C@@H](O)COP(=O)([O-])OCC(O)CO.[Na+] (mixture of isomers) [10:0 LysoPG, 1-decanoyl-2-hydroxy-sn-glycero-3-[phospho-rac-(1-glycerol)] sodium salt]
- protective effect against hERG inhibition by Nilotinib (in words) [1]: prevented the inhibition
- inhibition of the hERG tail current (in words) [1]: did not cause any inhibition

Compound: Cc1cn(-c2cc(NC(=O)c3ccc(C)c(Nc4nccc(-c5cccnc5)n4)c3)cc(C(F)(F)F)c2)cn1 [Nilotinib, reference compound]
- inhibition at 5 min, 1 μM ([1]; human, HEK 293 cells stably transfected with hERG, pH 7.4, read-out: inhibition of the hERG tail current): 70%
